{
  "source": "patent US12310930B2",
  "about": "(YS PHARMTECH, priority 2016, dated 2025)",
  "origin": "cited, not measured here",
  "note": "Where two headings read alike, the source gives them in different places.",
  "data": [
    {"compound": "CNCC(O)c1ccc(O)c(O)c1", "note": "(single isomer, unassigned; (-)) [epinephrine, (−)-3,4-Dihydroxy-α-[(methylamino)methyl]benzyl alcohol]", "values": [
      {"measurement": "association constant (K)", "setting": "pH 3.5, aqueous solution", "result": 488, "unit": "M⁻¹"},
      {"measurement": "association constant (K)", "setting": "pH 5.5, aqueous solution", "result": 111, "unit": "M⁻¹"}
    ]}
  ]
}
